# Non-standard residues stand in square brackets, D forms with d. Residues, ends and D or L forms follow the SMILES beside them. pY = N[C@@H](Cc1ccc(OP(=O)(O)O)cc1)C(=O)O
# Tests used:
# Format in all cases: binding
# STAT5a = target: T1, STAT5a (Homo sapiens, UniProt P42229); assay: HTRF assay, STAT5a; conditions: STAT5a 110 nM, without reducing agent, 1 h
# T1 sequence (P42229 1-794): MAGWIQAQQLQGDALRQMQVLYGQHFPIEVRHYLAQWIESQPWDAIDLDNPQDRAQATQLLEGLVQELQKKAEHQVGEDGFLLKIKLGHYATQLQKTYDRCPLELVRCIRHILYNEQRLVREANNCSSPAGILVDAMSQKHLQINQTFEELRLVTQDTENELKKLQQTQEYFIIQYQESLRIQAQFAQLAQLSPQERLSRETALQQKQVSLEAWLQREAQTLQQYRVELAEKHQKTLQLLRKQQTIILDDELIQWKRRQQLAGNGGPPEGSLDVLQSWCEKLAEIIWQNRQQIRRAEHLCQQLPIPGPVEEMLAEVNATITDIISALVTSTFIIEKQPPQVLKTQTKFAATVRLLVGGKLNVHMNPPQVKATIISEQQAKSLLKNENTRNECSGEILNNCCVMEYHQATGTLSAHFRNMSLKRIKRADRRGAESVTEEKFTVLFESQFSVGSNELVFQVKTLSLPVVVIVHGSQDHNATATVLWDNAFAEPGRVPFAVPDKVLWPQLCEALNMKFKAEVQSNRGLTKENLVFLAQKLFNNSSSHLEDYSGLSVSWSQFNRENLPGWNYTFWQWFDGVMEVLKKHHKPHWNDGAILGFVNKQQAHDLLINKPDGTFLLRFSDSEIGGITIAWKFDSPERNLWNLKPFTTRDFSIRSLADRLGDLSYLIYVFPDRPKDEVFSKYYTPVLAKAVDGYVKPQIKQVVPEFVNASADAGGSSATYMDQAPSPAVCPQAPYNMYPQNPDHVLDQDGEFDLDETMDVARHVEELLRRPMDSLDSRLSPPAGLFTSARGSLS
# Source text: (§1) The azo dyes PPADS and iso‐PPADS have a deep red color in aqueous solution. […] In order to exclude this possibility, we established homogeneous time‐resolved fluorescence resonance energy transfer (HTRF) assays to confirm the degree of binding between STAT4, STAT5a, and STAT5b and the respective 5‐carboxyfluorescein‐labeled binding peptides used in the FP assay. In addition, an HTRF assay was established for STAT3, one of the STAT proteins targeted to a lesser extent in FP assays, as a specificity control (Figure 1B,C). The STAT protein constructs each contain a 6x‐His‐tag.^[ [15], [16], [17], [22] ^] A Tb^3+‐cryptate fused to an anti‐6x‐His antibody was chosen as the long‐lived fluorescent donor, while the carboxyfluorescein linked to the respective STAT‐binding peptides served as the acceptor (Figure 2A). Emission was measured with a time delay of 60 μs after excitation, allowing any initial compound fluorescence to decay beforehand. […]
# (§2) Screening of chemical libraries comprising approximately 5000 known bioactive compounds in fluorescence polarization-based assays against phosphorylation-dependent protein-protein interaction domains, including STAT proteins, has been described.[1] […]
# (§3) Fluorescence polarization assays
# (§4) Competitive fluorescence polarization (FP) assays for STAT1,[2] […] Briefly, peptide binding to proteins was analyzed using the following carboxyfluorescein (CF) -labelled pepti des at a concentration of 10 nM: STAT1: 5-CF-GpYDKPHVL-OH, STAT3: 5-CF-GpYLPQTV -NH2, STAT4: 5-CF-GpYLPQNID-OH, STAT5a and STAT5b: 5-CF-GpYLVLDKW-OH, STAT6: 5- […]
# (§5) CFGp[…]-OH. […] FP was measured using an Infinite F500 plate reader (Tecan) and measurements were converted into percent inhibition according to the binding curve equation. Curves were plotted and best fits calculated using OriginPro […]
# (§6) Homogenous time-resolved fluorescence (HTRF) assays for STAT3, STAT4, STAT5a and STAT5b were carried out using Cisbio Monoclonal Antibody Anti-6His-Tb Gold as the fluorescence donor (Perkin Elmer) and the corresponding CF-labelled binding peptide as the acceptor. […] The average reading from 3 wells was obtained. […]
# STAT5b = target: T2, STAT5b (Homo sapiens, UniProt P51692); assay: HTRF assay, STAT5b; conditions: STAT5b 80 nM, without reducing agent, 1 h
# T2 sequence (P51692 1-787): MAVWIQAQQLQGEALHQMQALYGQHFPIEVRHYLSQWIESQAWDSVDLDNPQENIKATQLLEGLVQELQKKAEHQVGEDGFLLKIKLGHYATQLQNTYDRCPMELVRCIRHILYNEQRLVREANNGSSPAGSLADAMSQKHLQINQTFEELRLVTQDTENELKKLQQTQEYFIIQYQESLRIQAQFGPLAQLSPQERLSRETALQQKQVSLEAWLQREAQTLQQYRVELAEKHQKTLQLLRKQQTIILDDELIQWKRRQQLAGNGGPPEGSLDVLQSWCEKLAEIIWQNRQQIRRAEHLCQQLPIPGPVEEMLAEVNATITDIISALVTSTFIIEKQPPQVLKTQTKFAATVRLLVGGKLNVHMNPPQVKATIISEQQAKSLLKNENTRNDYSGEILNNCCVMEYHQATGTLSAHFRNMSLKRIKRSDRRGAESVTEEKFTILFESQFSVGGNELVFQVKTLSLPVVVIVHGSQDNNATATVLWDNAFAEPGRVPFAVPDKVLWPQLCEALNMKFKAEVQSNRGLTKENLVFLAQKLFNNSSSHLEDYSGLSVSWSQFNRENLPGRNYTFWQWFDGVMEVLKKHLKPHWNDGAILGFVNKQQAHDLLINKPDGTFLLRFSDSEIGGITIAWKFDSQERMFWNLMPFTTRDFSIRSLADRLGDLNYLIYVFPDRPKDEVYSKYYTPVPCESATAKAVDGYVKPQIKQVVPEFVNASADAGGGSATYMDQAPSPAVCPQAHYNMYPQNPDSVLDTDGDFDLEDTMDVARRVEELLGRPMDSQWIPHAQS
# Source text: as §1, §2, §3, §4, §5, §6
# STAT4 = target: T3, STAT4 (Homo sapiens, UniProt Q14765); assay: HTRF assay, STAT4; conditions: STAT4 30 nM, without reducing agent, 1 h
# T3 sequence (Q14765 1-748): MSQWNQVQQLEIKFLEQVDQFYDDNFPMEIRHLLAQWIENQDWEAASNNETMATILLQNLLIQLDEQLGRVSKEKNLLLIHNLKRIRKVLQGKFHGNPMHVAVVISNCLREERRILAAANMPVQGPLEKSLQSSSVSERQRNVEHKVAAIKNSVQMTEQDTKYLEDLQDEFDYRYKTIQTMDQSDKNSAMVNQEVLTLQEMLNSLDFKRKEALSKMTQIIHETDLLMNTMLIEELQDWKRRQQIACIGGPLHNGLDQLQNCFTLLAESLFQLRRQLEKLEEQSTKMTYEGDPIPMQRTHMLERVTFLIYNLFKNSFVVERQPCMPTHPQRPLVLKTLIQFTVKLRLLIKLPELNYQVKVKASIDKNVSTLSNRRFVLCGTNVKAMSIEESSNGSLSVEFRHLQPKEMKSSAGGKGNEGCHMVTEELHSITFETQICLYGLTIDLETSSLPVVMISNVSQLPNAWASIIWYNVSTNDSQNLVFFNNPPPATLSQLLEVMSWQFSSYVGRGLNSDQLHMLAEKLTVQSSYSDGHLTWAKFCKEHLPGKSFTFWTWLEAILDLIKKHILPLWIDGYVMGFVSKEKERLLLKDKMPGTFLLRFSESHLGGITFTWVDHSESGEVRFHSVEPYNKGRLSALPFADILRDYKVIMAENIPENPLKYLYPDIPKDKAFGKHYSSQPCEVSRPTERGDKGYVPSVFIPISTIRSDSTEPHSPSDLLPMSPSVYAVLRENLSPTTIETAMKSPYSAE
# Source text: as §1, §2, §3, §4, §5, §6
Structure (SMILES),IC50 (STAT5a),IC50 (STAT5b),IC50 (STAT4)
CC(C)C[C@H](NC(=O)[C@H](Cc1c[nH]c2ccccc12)NC(=O)[C@H](CCCCN)NC(=O)[C@H](CC(=O)O)NC(=O)[C@H](CC(C)C)NC(=O)[C@@H](NC(=O)[C@H](CC(C)C)NC(=O)[C@H](Cc1ccc(OP(=O)(O)O)cc1)NC(=O)[C@@H](NC(=O)[C@@H](N)CC(=O)O)[C@@H](C)O)C(C)C)C(=O)O (H-DT[pY]LVLDKWL-OH),2480 ± 270 nM,4180 ± 250 nM,
CC[C@H](C)[C@H](NC(=O)[C@H](CC(N)=O)NC(=O)[C@H](CCC(N)=O)NC(=O)[C@@H]1CCCN1C(=O)[C@H](CC(C)C)NC(=O)[C@H](Cc1ccc(OP(=O)(O)O)cc1)NC(=O)CNC(C)=O)C(=O)N[C@@H](CC(=O)O)C(=O)O [Ac‐GpYLPQNID] (Ac-G[pY]LPQNID-OH),,,2010 ± 80 nM

# Reference: paper PMC12442245, “Activity Analysis of the P2X Receptor Antagonist PPADS against Signal Transducer and Activator of Transcription Proteins” (Chembiochem, 2025)
